Assay [1] can be described thus: cells.
In assay [2] the test system is H4. In words: Luminescence Cell-Based Dose Response HTS to Identify Activators of 5'UTR Stem-Loop Driven Prion Protein mRNA Translation in H4 Neuroglioblastoma Cells. [Related pubchem assays: 1829 (Project Summary), 1814 (Primary HTS)]. The conditions noted are these: Homo sapiens. It is filed as functional.
Assay [3] in a line: Luminescence Cell-Based Dose Response HTS to Identify Activators of Luciferase Translation or Activity in H4 […] Cells. [Related pubchem assays: 1829 (Project Summary), 1814 (Primary HTS)]. In kind it is functional.
For assay [4], the target named is Major prion protein (Homo sapiens, UniProt P04156). It is filed as functional, cell-based.
In assay [5] the target is T1, RNA-binding protein pos-1 (Caenorhabditis elegans, UniProt G5EF15).
T1 sequence (G5EF15 whole entry): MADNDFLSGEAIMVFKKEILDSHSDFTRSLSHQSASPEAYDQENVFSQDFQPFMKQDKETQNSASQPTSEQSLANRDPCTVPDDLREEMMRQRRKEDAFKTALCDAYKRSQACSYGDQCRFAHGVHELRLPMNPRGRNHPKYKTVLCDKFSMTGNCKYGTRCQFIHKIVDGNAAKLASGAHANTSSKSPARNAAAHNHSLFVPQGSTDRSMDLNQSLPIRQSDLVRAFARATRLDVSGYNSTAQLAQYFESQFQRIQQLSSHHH
In words: inhibitors of POS-1/mex-3 RNA binding, dose response, biochemical, fluorescence polarization (AID 1964).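 Note: purified POS-1 fused to maltose binding protein made in E. coli; potency of compounds blocking POS-1 binding to fluorescent RNA.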

The target of assay [6] is T2, Sentrin-specific protease 1 (Homo sapiens, UniProt Q9P0U3).
T2 sequence (Q9P0U3 whole entry): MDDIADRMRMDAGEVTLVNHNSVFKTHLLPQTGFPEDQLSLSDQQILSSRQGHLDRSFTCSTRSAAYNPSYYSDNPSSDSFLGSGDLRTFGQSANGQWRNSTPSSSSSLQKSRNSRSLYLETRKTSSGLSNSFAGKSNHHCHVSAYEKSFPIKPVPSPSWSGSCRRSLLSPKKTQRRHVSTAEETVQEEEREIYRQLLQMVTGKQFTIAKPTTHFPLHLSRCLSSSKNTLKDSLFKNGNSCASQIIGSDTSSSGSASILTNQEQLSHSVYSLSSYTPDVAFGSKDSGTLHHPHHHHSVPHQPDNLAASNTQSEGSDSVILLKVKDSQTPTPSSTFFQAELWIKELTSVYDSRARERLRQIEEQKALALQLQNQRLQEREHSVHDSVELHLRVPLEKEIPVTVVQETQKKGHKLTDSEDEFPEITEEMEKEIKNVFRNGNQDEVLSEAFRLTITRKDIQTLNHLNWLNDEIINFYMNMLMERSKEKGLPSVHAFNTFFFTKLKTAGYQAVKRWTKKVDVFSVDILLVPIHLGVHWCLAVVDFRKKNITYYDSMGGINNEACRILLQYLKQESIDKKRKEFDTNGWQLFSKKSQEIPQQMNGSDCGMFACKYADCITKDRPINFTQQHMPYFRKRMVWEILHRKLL
Put plainly: potency of human SENP1 inhibitors, dose response, biochemical, kinetic FRET (AID 651697). In kind it is functional. The conditions noted are these: read-out: IC50_Mean.

Assay [7] addresses T3, Zinc finger protein mex-5 (Caenorhabditis elegans, UniProt Q9XUB2).
T3 sequence (Q9XUB2 whole entry): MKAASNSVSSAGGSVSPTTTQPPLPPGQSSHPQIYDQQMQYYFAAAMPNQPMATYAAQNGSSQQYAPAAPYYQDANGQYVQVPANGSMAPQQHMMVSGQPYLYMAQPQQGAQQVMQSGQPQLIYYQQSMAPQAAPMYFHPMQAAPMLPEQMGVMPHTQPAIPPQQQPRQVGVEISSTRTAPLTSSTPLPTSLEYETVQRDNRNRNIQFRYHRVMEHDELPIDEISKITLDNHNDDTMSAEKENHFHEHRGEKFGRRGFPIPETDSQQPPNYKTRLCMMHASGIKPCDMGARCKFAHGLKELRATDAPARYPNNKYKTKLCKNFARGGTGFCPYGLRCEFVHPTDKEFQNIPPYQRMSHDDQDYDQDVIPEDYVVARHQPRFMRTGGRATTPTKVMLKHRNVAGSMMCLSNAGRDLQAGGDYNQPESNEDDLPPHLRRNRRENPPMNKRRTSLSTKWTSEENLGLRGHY
Put plainly: MEX-5/TCR-2 RNA interaction inhibitors, dose response, biochemical, C. elegans, fluorescence polarization (AID 1960). On the technique in general: Fluorescence polarisation rises when a labelled molecule tumbles more slowly, as on binding a larger partner.

The nature of assay [8]: Luminescence Cell-Based Dose Confirmation HTS to Identify Activators of 5'UTR Stem-Loop Driven Alpha-Synuclein mRNA Translation in H4 Neuroglioblastoma Cells. [Related pubchem assays: 1829 (Project Summary), 1814 (Primary HTS)]. In kind it is functional.
In assay [9] the target is T4, Beta-lactamase (Pseudomonas aeruginosa, UniProt Q79MP6). Put plainly: IMP-1 metallo-beta-lactamase inhibitors, dose response, selectivity assay for VIM-2 inhibitor project, biochemical, epi-absorbance (AID 1920).
The target in assay [10] is Beta-lactamase (Salmonella choleraesuis (strain SC-B67), UniProt Q5J463). In words: Epi-absorbance-based counterscreen for selective VIM-2 inhibitors: dose response biochemical high throughput screening assay to identify inhibitors of TEM-1 serine-beta-lactamase. (The purpose of a counterscreen is to sort out artefacts and off-target activity.)
In assay [11] the target is T4, Beta-lactamase. Put plainly: […] counterscreen for selective VIM-2 inhibitors: dose response biochemical high throughput screening assay to identify inhibitors of IMP-1 metallo-beta-lactamase.
The nature of assay [12]: cells. It is filed as functional, cell-based.
Assay [13] addresses T5, Trace amine-associated receptor 1 (Homo sapiens, UniProt Q96RJ0).
T5 sequence (Q96RJ0 whole entry): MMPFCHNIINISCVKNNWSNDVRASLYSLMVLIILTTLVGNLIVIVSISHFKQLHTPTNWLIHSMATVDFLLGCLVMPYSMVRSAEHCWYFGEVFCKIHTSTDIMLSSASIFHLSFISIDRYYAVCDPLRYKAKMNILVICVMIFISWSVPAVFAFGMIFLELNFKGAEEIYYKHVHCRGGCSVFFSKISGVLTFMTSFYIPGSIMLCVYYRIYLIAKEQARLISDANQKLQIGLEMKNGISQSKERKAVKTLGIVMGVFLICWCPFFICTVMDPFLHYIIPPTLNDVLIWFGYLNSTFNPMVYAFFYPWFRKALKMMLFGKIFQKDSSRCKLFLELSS
In words: Fluorescence-based cell-based high throughput dose response assay to identify agonists of the human trace amine associated receptor 1 (TAAR1). It is filed as functional.

Assay [14] is described as follows: cells. It is filed as functional, cell-based. This is another data set of the same source.
Assay [15] concerns the target T5, Trace amine-associated receptor 1. Put plainly: Counterscreen for agonists of the human trace amine associated receptor 1 (hTAAR1): Fluorescence-based cell-based high throughput dose response assay to identify hTAAR1 agonist that also desensitize TAAR1 receptor response. In kind it is functional.
A short description of assay [16]: LMP1-driven NF-kB reporter inhibition, dose response, cell-based, luciferase reporter, luminescence, dry powder, set 2 (AID 624376). In kind it is functional.
Assay [17] is described as follows: HEK293 cell cytotoxicity, dose response, cytotoxicity control, cherry-picks, set 5 (AID 1053117). In kind it is functional, cell-based.
The nature of assay [18]: Counterscreen for inhibitors of Trypanosoma brucei methionyl tRNA synthetase (MetRS): Luminescence-based cell-based high throughput dose response assay to identify compounds that are cytotoxic to Jurkat human T lymphocyte cells. It is filed as functional.
Assay [19] deals with T6, Methionyl-tRNA synthetase, putative (Trypanosoma brucei brucei, UniProt Q38C91).
T6 sequence (Q38C91 whole entry): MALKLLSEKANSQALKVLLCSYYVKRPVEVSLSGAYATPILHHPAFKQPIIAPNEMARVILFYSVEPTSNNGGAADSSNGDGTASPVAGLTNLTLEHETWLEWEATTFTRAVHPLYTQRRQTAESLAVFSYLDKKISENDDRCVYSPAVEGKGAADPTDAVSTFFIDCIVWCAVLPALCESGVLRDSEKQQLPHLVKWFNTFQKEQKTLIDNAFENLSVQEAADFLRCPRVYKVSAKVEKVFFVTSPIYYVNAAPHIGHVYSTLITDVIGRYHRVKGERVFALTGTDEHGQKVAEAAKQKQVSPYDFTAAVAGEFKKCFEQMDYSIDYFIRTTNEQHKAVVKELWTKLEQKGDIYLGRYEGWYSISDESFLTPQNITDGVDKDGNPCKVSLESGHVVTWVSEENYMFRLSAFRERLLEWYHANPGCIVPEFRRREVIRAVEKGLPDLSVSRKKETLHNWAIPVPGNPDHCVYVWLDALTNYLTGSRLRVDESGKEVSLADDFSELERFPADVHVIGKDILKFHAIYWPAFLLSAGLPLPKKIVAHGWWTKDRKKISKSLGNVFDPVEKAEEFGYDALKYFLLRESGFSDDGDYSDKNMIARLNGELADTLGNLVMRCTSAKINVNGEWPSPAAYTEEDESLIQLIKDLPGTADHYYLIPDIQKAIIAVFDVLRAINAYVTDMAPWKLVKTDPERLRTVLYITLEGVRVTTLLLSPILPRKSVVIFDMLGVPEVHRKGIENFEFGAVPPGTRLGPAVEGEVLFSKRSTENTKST
In kind it is functional, Trypanosoma brucei brucei strain 927/4 GUTat10.1.

The target in assay [20] is T6, Methionyl-tRNA synthetase, putative. It is filed as functional, Trypanosoma brucei brucei strain 927/4 GUTat10.1. The source holds these as a separate data set.
In assay [21] the target is Arf-GAP with SH3 domain, ANK repeat and PH domain-containing protein 1 (Homo sapiens, UniProt Q9ULH1). It is filed as functional.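 Note: biochemical fluorescence polarization dose–response screen measuring inhibition of ASAP1; ASAP1 GAP domain stimulating GTP hydrolysis by truncated human ARF1.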

Calls of active or inactive are those of the source.

Data on twelve compounds can be found in ChEMBL document CHEMBL1201862, “PubChem BioAssay data set” (2004).

For `CC1CCCN(C(=O)CSc2cnc3ccccc3n2)C1` (configuration not stated), the IC50 in assay [1] is > 138 µM (inactive); in assay [4] it was 5.87 µM (active). Moreover, the half-maximal effective concentration (EC50) in assay [2] is 11 µM (active); in [3], 5.25 µM (active).
For `COc1ccc(P2(=O)Nc3ccccc3N2)cc1`, the EC50 was > 300 µM (not active) in assay [5]; 7.44 µM (active) in assay [2]; 103 µM (active) in assay [7]; 10.5 µM (active) in [3]; > 120 µM (not active) in assay [8]. In addition, the IC50 in assay [6] was 74.3 µM (inactive).
With `O=C(CSc1nnc(NC(=O)c2c(F)cccc2F)s1)NCc1ccccc1`, the IC50 in [9], in [10] and in [11] was > 59.6 µM (inactive) each time.
For the compound `O=C(O)C1C2C=CC(C2)C1C(=O)NCCc1ccccc1` (configuration not stated), the EC50 in [12] is > 29.9 µM (inactive); in assay [13], 140 nM (active). The IC50 in [14] is > 29.9 µM (inactive); in assay [15], 5.26 µM (active).
In assay [16], `Cc1noc(C)c1S(=O)(=O)Nc1ccc2c(c1)C(=O)N([C@@H](C)CO)C[C@@H](C)[C@H](CN(C)Cc1ccc(C(F)(F)F)cc1)OCCCC[C@@H](C)O2` gave an AbsAC35 of 151.1 µM.
As for `C[C@H]1CN([C@@H](C)CO)C(=O)c2cc(-c3ccccc3)cnc2O[C@H]1CN(C)C(=O)c1cccc(F)c1`, the AC50 in assay [17] is > 52 µM (inactive).
Turning to `Cc1ccc(NC(=O)C(C)c2cccc(C(=O)c3ccccc3)c2)cc1` (configuration not stated), the IC50 is 83.3 µM (inactive) in assay [18], 7.61 µM (active) in assay [19] and 3.15 µM (active) in [20].
The compound `C[C@H]1CN([C@@H](C)CO)C(=O)c2c(c3ccccc3n2C)-c2ccccc2CO[C@@H]1CN(C)C(=O)Nc1ccc(F)cc1` came in with an AbsAC35 in assay [16] of 78.41 µM.
For `O=C(N[C@@H](Cc1cccnc1)C(=O)N1CCC[C@H]1C(=O)NCCc1ccccc1Cl)c1ccccc1`, the EC50 in assay [12] was > 29.9 µM (inactive); in [13] it was 4300 nM (active). Moreover, the IC50 in assay [14] was > 29.9 µM (inactive); in assay [15], 5.16 µM (active).
Turning to `COc1ccc(/C=C2\C(=O)NC(=O)c3ccccc32)cc1OC`, the IC50 in assay [21] is 165 µM (inactive).
As to `Cc1ccc(/C=N/NC(=O)CCCOc2ccc(Cl)cc2Cl)cc1[N+](=O)[O-]`, the IC50 in assay [21] was 26.1 µM (inactive).
For the compound `OC(c1cc(F)cc(Cl)c1)c1nc(-c2cccc(C(F)(F)F)c2)c[nH]1` (configuration not stated), the results for the IC50 in assay [18], in assay [19] and in assay [20] were 42.2 µM (inactive), 27.7 µM (inactive) and 17.5 µM (inactive), respectively.

By EC50 is commonly meant the concentration giving half of the maximal effect. In general, AC50 refers to the concentration at which the activity in the assay is half-maximal.
